# Experimental data reported in the supplement of paper PMC6723410.
# Tested on: GUMC-403
# Assay: viability at highest tested concentration (max response) relative to DMSO (% of DMSO control); higher = less cytotoxic
# Conditions: library / dose series: MIPE library, 11-point 1:3 dilution; top concentration 46.1 µM; 48 h
# Method in brief: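 Each figure stands for viability at the highest tested concentration compared with vehicle control. It was measured by CellTiter-Glo luminescence on a ViewLux after 48 h of exposure to 23 nL of pinned compound, with vehicle wells taken as 100% and empty wells as 0%. The cells were patient-derived GUMC-403 papilloma cells grown by conditional reprogramming, plated at 700/well in 5 μL F + Y medium in 1536-well plates.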
row,Structure (SMILES),viability
1,CC\1=C(C(=O)N(\C=C1)C2=CC=C(C=C2)C3=NC=CO3)/C4=CC5=CN=C(N)N=C5C=C4,79.7
2,Cc1nnc(C(C)C)n1[C@@H]1C[C@H]2CC[C@@H](C1)N2CC[C@H](NC(=O)C1CCC(F)(F)CC1)c1ccccc1,140
3,CC1=C(CC(=O)O)c2cc(F)ccc2/C1=C\c1ccc([S+](C)[O-])cc1 (centres undefined),59.8
4,O=C(O)c1ccc(-c2c[nH]c3ncc(-c4ccccc4)cc23)cc1C1CCCC1,145
5,N[S+](=O)([O-])c1cc2c(cc1Cl)NCN[S+]2(=O)[O-],108
6,CO[C@H]1C[C@@H]2CC[C@@H](C)[C@@](O)(O2)C(=O)C(=O)N2CCCC[C@H]2C(=O)O[C@H]([C@H](C)C[C@@H]2CC[C@@H](OC(=O)C(C)(CO)CO)[C@H](OC)C2)CC(=O)[C@H](C)/C=C(\C)[C@@H](O)[C@@H](OC)C(=O)[C@H](C)C[C@H](C)/C=C/C=C/C=C/1C,110
7,C[C@H](NC(=O)/C(C#N)=C/c1cccc(Br)n1)c1ccccc1,31.7
8,COC(=O)C[C@](O)(CCCC(C)(C)O)C(=O)O[C@@H]1C(OC)=CC23CCCN2CCc2cc4c(cc2[C@H]13)OCO4 (some centres undefined),140
9,COc1cc[nH]c2ncc(C(=O)C(=O)N3CCN(C(=O)c4ccccc4)C[C@H]3C)c1-2,134
10,Oc1cc(-c2nc(-c3ccccc3)[nH]c2-c2ccncc2)ccc1Cl,91.4
11,CC[C@]12\C=C/CN3CC[C@]4([C@@H](N(C)C5=CC(=C(C=C45)[C@]6(C[C@H]7C[C@H](CN(C7)CC8=C6[NH]C9=C8C=CC=C9)C(C)(F)F)C(=O)OC)OC)[C@](O)([C@@H]1OC(C)=O)C(=O)OC)[C@H]23,85
12,CCC(CCCC)COC(=O)C(\C#N)=C(\c1ccccc1)c2ccccc2 (centres undefined),113
13,CCN1CCN(C(=O)Cc2ccc(Nc3ncc(F)c(Nc4ccc(C(=O)Nc5ccccc5Cl)cc4)n3)cc2)CC1,55.5
14,Nc1ncnc2c1nc(Cl)n2[C@@H]1O[C@H](CO)[C@@H](O)[C@H]1O,46
15,O=C1Cc2cc(CCN3CCN(c4nsc5ccccc45)CC3)c(Cl)cc2N1,100
16,CCCCC[C@H](O)/C=C/[C@H]1[C@H](O)CC(=O)[C@@H]1CCCCCCC(=O)O,107
17,OC1=CC=C(C=C1)\C2=C(O)\C(=O)C3=C(O2)C=C(O)C=C3O,160
18,CC(C)(N)c1ccc(-c2nc3ccccc3nc2-c2ccccc2)cc1,116
19,O=C(CCCCCCC(=O)Nc1ccccc1)NO,99
20,CCC(=O)O[C@@]1([C@@H](C)C[C@H]2[C@@H]3CCC/4=C/C(=O)/C=C\[C@]4(C)[C@@]3(F)[C@@H](O)C[C@]12C)C(=O)CCl,148

row,Structure (SMILES),viability
1,N#Cc1c(NC(=O)c2cccc3ccccc23)sc2c1CCCC2,109
2,O=C(O)C1(Cc2cccc(Nc3nccs3)n2)CCC(Oc2cccc(Cl)c2F)CC1 (centres undefined),115
3,COc1nccc(-c2c(-c3ccc(F)cc3)ncn2C2CCNCC2)n1,131
4,CC(C)CN(C[C@@H](O)[C@H](Cc1ccccc1)NC(=O)O[C@H]1CCOC1)[S+](=O)([O-])c1ccc(N)cc1,109
5,Cc1ccc(NC(=O)c2cccc(N(C)C)c2)cc1NC(=O)c1ccc(O)cc1,96.6
6,COC1=C(OC)C(=O)C(C/C=C(\C)CC/C=C(\C)CC/C=C(\C)CC/C=C(\C)CC/C=C(\C)CC/C=C(\C)CC/C=C(\C)CC/C=C(\C)CC/C=C(\C)CCC=C(C)C)=C(C)C1=O,118
7,Cc1cnc(NC(=O)Nc2cc(Br)c(C)cc2OC[C@@H]2CNCCO2)cn1,110
8,CC(=O)NC[C@H]1CN(c2ccc(N3CCOCC3)c(F)c2)C(=O)O1,120
9,O=[S+]([O-])(c1cccc2cnccc12)N1CCCNCC1,128
10,CC[C@]1(O)C[C@H]2CN(CCC3=C([NH]C4=C3C=CC=C4)[C@@](C2)(C(=O)OC)C5=CC6=C(C=C5OC)N(C=O)[C@H]7[C@](O)([C@H](OC(C)=O)[C@]8(CC)\C=C/C[N@@]9CC[C@]67[C@H]89)C(=O)OC)C1,105
11,CN1CCN(CCOc2cc(OC3CCOCC3)c3c(Nc4c(Cl)ccc5c4OCO5)ncnc3c2)CC1,75.9
12,COc1ccc(C(=O)N2CCCC2=O)cc1,119
13,CCOC(=O)C/1=C(C)/NC(=S)NC1C2=CC=CC(=C2)O (centres undefined),118
14,COc1ccc(COc2cc3oc(=O)c4cc(C(C)O)ccc4c3cc2OC)cc1 (centres undefined),86.3
15,CC/1=C(/N2[C@H](SC1)[C@H](NC(=O)C(N)C3=CC=CC=C3)C2=O)C(O)=O (some centres undefined),106
16,O=C(c1ccccc1)c1ccc2n1CCC2C(=O)O (centres undefined),75.8
17,O=C(O)C1=NC(C(=O)O)CC(/C=C/N2c3cc(O)c(OC4OC(CO)C(O)C(O)C4O)cc3CC2C(=O)O)=C1 (centres undefined),135
18,CC1=CC(=CC(=C1C\C2=N\CCN2)C)C(C)(C)C,130
19,COc1ccccc1[C@H](c1cccc2ccccc12)[C@@](C)(C#N)C(=O)N1CCC(c2cccc(C(F)(F)F)c2)CC1,86.3
